Assay results: PMC10574185, “Encapsulation and Biological Activity of Hesperetin Derivatives with HP-β-CD” (Molecules, 2023)

How the values were obtained:
[1] = system: Listeria monocytogenes ATCC 19112; experiment: Antagonistic activity, diffusion-well method; assay type: cell-based; settings: ATCC19112, compounds at 2.5 µM, wells 8 mm, 37 °C, 18 h
Method: (§1) The antimicrobial activity of the HESP, ligands ([…], and HTSC), and complexes with HP-β-CD were tested against Gram-positive bacteria (Listeria monocytogenes ATCC 19111, Listeria monocytogenes ATCC 19112, Listeria monocytogenes ATCC 19115, Staphylococcus aureus ATCC 29737, Staphylococcus aureus ATCC 25923, Staphylococcus aureus ATCC 27734) and Gram-negative bacteria (Escherichia coli ATCC 11303, Escherichia coli ATCC 35218, Salmonella Typhimurium, ATCC 14028, Salmonella Enteritidis ATCC 13076, Salmonella Choleraesuis ATCC 7001). The strains were activated from cryobanks by passaging them twice onto a Nutrient Broth (Merck, Darmstadt, Germany). All bacteria were grown for 24 h at 37 °C. Antagonistic activity of the following chemical compounds: […], and […] determined by the diffusion-well method. The test strains were plated on Mueller-Hinton Agar (Merck, Darmstadt, Germany) in the form of a surface layer of bacteria according to the procedures recommended by the European Committee on Antimicrobial Susceptibility Testing EUCAST [74]. The detailed methodology was described in the paper by Sykuła et al.. Bacterial inoculum was prepared from an overnight solid culture. The inoculum density was 1-2 × 10^8 CFU/mL, which corresponds to a McFarland standard of 0.5. The samples of the test compounds were dissolved in 5% (w/w) DMSO to obtain a concentration of 500 μM, and were sterilized using filtration (filter pore width 0.2 μm; (Sartorius AG, Gottingen, Germany). The bacteria inoculum test culture (0.1 mL) smear conducted was on sterile Mueller-Hinton Agar (Merck, Darmstadt, Germany) plates. […] A total of 50 μL of the prepared solutions of the tested compounds at a concentration of 500 μM were added to the wells. The plates prepared in this way were incubated at 37 °C for 18 h. After this time, zones of growth inhibition were read and the result was given in mm. The experiment was carried out in two independent repetitions. The results were expressed in average values and standard deviation. The results were analyzed using a one-way ANOVA and post-hoc Tukey's test.

[2] = system: Staphylococcus aureus ATCC 27734; experiment: Antagonistic activity, diffusion-well method; assay type: cell-based; settings: ATCC27734, compounds at 2.5 µM, wells 8 mm, 37 °C, 18 h
Method: as §1

[3] = system: Salmonella Typhimurium ATCC 14028; experiment: Antagonistic activity, diffusion-well method; assay type: cell-based; settings: Salmonella enterica, compounds at 2.5 µM, wells 8 mm, 37 °C, 18 h
Method: as §1

[4] = system: Salmonella Choleraesuis ATCC 7001; experiment: Antagonistic activity, diffusion-well method; assay type: cell-based; settings: Salmonella enterica, compounds at 2.5 µM, wells 8 mm, 37 °C, 18 h
Method: as §1

[5] = system: Salmonella Enteritidis ATCC 13076; experiment: Antagonistic activity, diffusion-well method; assay type: cell-based; settings: Salmonella enterica, compounds at 2.5 µM, wells 8 mm, 37 °C, 18 h
Method: as §1

[6] = system: Listeria monocytogenes ATCC 19111; experiment: Antagonistic activity, diffusion-well method; assay type: cell-based; settings: ATCC19111, compounds at 2.5 µM, wells 8 mm, 37 °C, 18 h
Method: as §1

[7] = system: Listeria monocytogenes ATCC 19115; experiment: Antagonistic activity, diffusion-well method; assay type: cell-based; settings: ATCC19115, compounds at 2.5 µM, wells 8 mm, 37 °C, 18 h
Method: as §1

HaCaT cells = experiment: MTT cytotoxicity assay on HaCaT keratinocytes; assay type: cell-based, human
Method: HaCaT keratinocyte cells were exposed to chemical compounds at nine different concentrations (from 3.9 to 995.6 µg/mL) in four replicates of each concentration for 24 and 48 h.
All compounds were dissolved in sterile DMSO (Merck Life Science, Warsaw, Poland) and were sterile-filtered with 0.22 µm pore size sterile disposable syringe filters.
HaCaT cell line (the normal immortalised human keratinocytes) used in the study derived from the 35th passage (the original material created by Prof. Dr. Petra Boukamp and Dr. Norbert Fusenig) was purchased from Cell Line Service GmbH (Eppelheim, Germany). The cells were cultured and propagated as described previously.
The cytotoxicity was assessed with MTT assay according to methodology applied previously.
The following final concentrations (in four replicates per experiment) of the test compounds were tested (µg/mL): 3.9; 7.8; 15.6; 31.1; 62.2; 124.5; 248.9; 497.8, and 995.6. […] Three independent experiments were conducted. The vehicle was cells in the culture medium. The assay was conducted for 24 h and 48 h.

[8] = system: Staphylococcus aureus ATCC 29737; experiment: Minimal inhibition concentration (dilution + diffusion-well); assay type: cell-based; settings: ATCC29737, 37 °C, 18 h
Method: (§2) The MIC was performed for compounds and strains sensitive to their action in the antagonistic test. Minimum inhibitory concentration was determined by combining the dilution method with the diffusion-well method. Test compounds at a concentration of 500 μM were prepared in 5% (w/w) DMSO. Surface layer of microorganisms, against which antagonistic activity was noted, were prepared in the same way as for the antagonistic test. Then, two-fold sequential dilutions of the test compounds in the range of 500 µM to 62.5 µM were prepared. Wells with a diameter of 8 mm cut in the Mueller–Hinton Agar (Merck, Darmstadt, Germany) with the test strain were added with 50 µL of the prepared dilutions, which corresponded to the following concentrations of the tested compounds: […], 1.25 mM, 0.625 mM, and […]. Petri dishes prepared in this way were incubated at 37 °C for 18 h. After a given time, the MIC value was read. The MIC concentration expressed in µM was the first concentration of the tested compounds at which growth inhibition of the test strain was observed.

[9] = system: Staphylococcus aureus ATCC 25923; experiment: as above; assay type: cell-based; settings: ATCC25923, 37 °C, 18 h
Method: as §2

[10] = system: Escherichia coli ATCC 11303; experiment: as above; assay type: cell-based; settings: ATCC11303, 37 °C, 18 h
Method: as §2

SMILES: CC(O)COC[C@H]1O[C@@H]2O[C@H]3[C@H](O)[C@@H](O)[C@@H](O[C@H]4[C@H](O)[C@@H](O)[C@@H](O[C@H]5[C@H](O)[C@@H](O)[C@@H](O[C@H]6[C@H](O)[C@@H](O)[C@@H](O[C@H]7[C@H](O)[C@@H](O)[C@@H](O[C@H]8[C@H](O)[C@@H](O)[C@@H](O[C@H]1[C@H](O)[C@H]2O)O[C@@H]8COCC(C)O)O[C@@H]7COCC(C)O)O[C@@H]6COCC(C)O)O[C@@H]5COCC(C)O)O[C@@H]4COCC(C)O)O[C@@H]3COCC(C)O (stereo partly drawn) [HP-β-CD, (2-Hydroxypropyl)-β-cyclodextrin]
- zone of inhibition at 2.5 µM [1]: 0 mm
- zone of inhibition at 2.5 µM [2]: 0 mm
- zone of inhibition at 2.5 µM [3]: 0 mm
- zone of inhibition at 2.5 µM [4]: 0 mm
- zone of inhibition at 2.5 µM [5]: 0 mm
- zone of inhibition at 2.5 µM [6]: 0 mm
- zone of inhibition at 2.5 µM [7]: 0 mm
- cytotoxicity (maximum over tested concentrations) (HaCaT cells; 24 h, 3.9-995.6 µg/mL): up to 6.6% ± 7.2
- Non-cytotoxic concentration (IC0) (HaCaT cells; 24 h exposure): ≤ 31.1 µg/mL
- Non-cytotoxic concentration (IC0) (HaCaT cells; 48 h exposure): ≤ 3.9 µg/mL
- MIC [8]: 2.5 µM
- MIC [9]: 2.5 µM
- MIC [10]: 2.5 µM
